Earlier results, collected in patent publication US20130071435A1, “NOVEL HERBAL FORMULATION FOR THE MODULATION OF IMMUNE SYSTEM OF HIV INFECTED PATIENTS AND A PROCESS OF PREPARATION THEREOF” (Sunil Kumar Swamy Rajan and Arun Kumar Swamy Rajan, priority 2011, published 2013).

Details: experimental, in-vitro and in-vivo studies

Row | Substance | immuno-potentiating activity
1 | sitoindoside 1× | significant immuno-potentiating activity
2 | sitoindoside × | significant immuno-potentiating activity
